Here are results for 88 molecules from a melting point compilation (Tetko et al.; mined from patent text by program, amines drawn as free bases though some values may be those of a salt).

With `CCN1CC(=O)N(CC)c2cc(Nc3ncc(Cl)c(Nc4ccc(OC)cc4-n4cccn4)n3)c(OC)cc2C1`, the melting point was 97 to 100 °C. As for `CCOC(=O)C1CCN2C(=O)C(=O)c3cc(Br)cc1c32` (stereo not drawn), the melting point is 150 to 151 °C. Consider `CCC(=O)Nc1ccc(-c2ccc(C(=O)N3CCN4CCC3CC4)o2)cc1`, for which the melting point was found to be 264 °C. `Cn1ccnc1COc1ccccc1[N+](=O)[O-]` showed a melting point of 172 to 174 °C.

Take `CCOC(=O)C1=C(C)NC(=S)N(C(=O)OCC)C1c1ccc([N+](=O)[O-])cc1` (stereo not drawn): the melting point was 163 to 165 °C. On to `Cc1noc(NS(=O)(=O)c2ccc(S(=O)(=O)c3ccccc3)s2)c1Br`, for which the melting point was 139 to 142 °C. The figure for `Cc1ccc(N(c2ccc(C)cc2)c2c(F)cc(F)c(F)c2F)cc1` is 95 °C; for `O=[N+]([O-])c1ccc(-n2nnnc2Cl)cc1` it is 96.5 °C; for `CC=C1CCC2C3C(OC(C)=O)CC4CC(OC(C)=O)CCC4(C)C3CCC12C` (stereo not drawn) it is 92 to 93 °C. Consider `FC(F)(F)c1cccc(N2CCC(N=Cc3cnc4ccccc4c3)=N2)c1`, for which the melting point was in the range of 209 to 210 °C. `CC(C)(NC(=O)c1cc2c(n(CC3CCCCC3)c1=O)CCCCCC2)C(=O)O` displayed a melting point of 177 to 180 °C.

Turning to `COC(=O)c1ccc2c(c1)C(C#N)=CCC2`, the melting point was 73 to 75 °C. Consider `O=c1oc(-c2cccc(C(F)(F)F)c2)nc2cccc(F)c12`, for which the melting point was in the range of 115 to 121 °C. For the molecule `CCOc1nn(C(=O)NS(=O)(=O)c2c(C)csc2C)c(=O)n1C`, the melting point was determined as 158 °C. `COC(=O)C[C@@](O)(CCc1ccc(O)cc1)C(C)C` registered a melting point of 89 to 91 °C. The molecule `O=C1c2ccccc2C(=O)N1C(Cc1ccccc1)C1CC(Cc2ccccc2)=NO1` (stereo not drawn) yielded a melting point of 134 to 136 °C. `O=Nc1c(O)cc(N2CCCCC2)c2oc3ccccc3c12` yielded a melting point of 181 to 185 °C. The figure for `CSc1ccc(COC(=O)N2CCN(CC3(C)Cn4cc([N+](=O)[O-])nc4O3)CC2)cc1` (stereo not drawn) is 118 to 120 °C; for `COc1ccc(CCNC(=O)CNc2ccc(C)cc2)cc1OC` it is 87 to 88.5 °C. In turn, `CCCSC(C)c1c(-c2ccc(S(C)(=O)=O)cc2)cnn(-c2ccc(F)cc2)c1=O` (stereo not drawn) showed a melting point of 45 to 60 °C. `Cc1ccc2c(O)cnnc2c1` yielded a melting point of 114 to 115 °C. With `O=C1NC(c2ccccc2)(c2ccccc2)C(=O)N1COP(=O)(OCc1ccccc1)OCc1ccccc1` the figure was 119 to 120 °C; with `O=c1cc2c(nn1-c1ccc(Cl)cc1)-c1cc(CO)sc1CCC2`, 118 to 121 °C; with `Cc1cc(O)c(S(=O)(=O)CC2CCCCC2)c(=O)o1`, 104 to 106 °C. As for `Fc1cc(OCc2ccccc2)ccc1-c1ncc(Br)cn1`, the melting point was determined as 124 °C. Consider `Fc1ccc2c(C3CCC4(CC3)OCCO4)c[nH]c2c1`, for which the melting point was 158 to 159 °C.

`CCN1c2ncc(CC(O)c3ccncc3)cc2C(=O)N(C)c2ccc(Cl)nc21` (stereo not drawn) displayed a melting point of 153 to 154 °C. Take `C=Cc1nnc2ccc3ccccc3n12`: the melting point lay within 117 to 118 °C. Consider `COc1ccc(S(=O)(=O)N2CCC[C@H]2C(=O)N2CCN(C(=O)c3ccc(C=NN)cc3)CC2)c(OC)c1COc1cccc2c(C)cc(C)nc12`, for which the melting point came to 136 °C. In the case of `CCCCc1nc(SC)c(C(=O)OCC)n1Cc1ccc(-c2ccc(S(=O)(=O)NC#N)cc2C)cc1`, the melting point worked out at 211 °C. The molecule `CCCCCCCCCCC1=C(O)C(=O)NC1=O` registered a melting point of 109 to 111 °C. In the case of `CC(C)(CCCCOc1ccc(NC(=O)CCCn2ccnc2)cc1)C(=O)O`, the melting point is 150 °C. With `Cc1nc2c(s1)-c1nc(NCc3ccccc3)ncc1CC2` the figure was 152 to 154 °C. In turn, `CC1(C)[C@H](c2nc(-c3ccc(F)cc3)no2)CC[C@]1(C)NCC(=O)N1C[C@@H](F)C[C@H]1C#N` came in with a melting point of 160 to 163 °C.

As to `CCN(CC)CCOC(=O)c1ccc(NC(=O)c2ccc(-c3ccccc3)cc2)cc1`, the melting point lay in the range of 146 to 149 °C.

`CCOC(=O)C(O)=Cc1cc(OCc2ccccc2)ncn1` returned a melting point of 136 to 137 °C. The figure for `COC(C)=CC(=O)Nc1cccc(Br)c1` is 110 °C. With `O=C(O)c1cccc(CN2CCC(c3cn(Cc4ccco4)c4ccccc34)CC2)c1` the figure was 154 to 155 °C; with `COc1ccc(-c2nc(Cn3ccnc3)cs2)cc1`, 89 to 90 °C; with `CCOc1cccc(OC)c1CN1CCC(=O)C(C(c2ccccc2)c2ccccc2)C1` (stereo not drawn), 137 to 138 °C. Molecule `CC(=O)SC(CC(=O)c1ccc(F)cc1)C(=O)O` (stereo not drawn) showed a melting point of 108 to 110 °C. Turning to `CN(C)c1ncc(-c2cccc(N)c2)cn1`, the melting point was 116 to 117 °C. As to `N#CCc1ccc(OC(F)F)c(OC2CCCC2)c1`, the melting point was 39 to 41 °C. Molecule `Cc1cc(C(F)(F)F)n2nc(NS(=O)(=O)c3ccccc3Cl)nc2n1` returned a melting point of 203 to 204 °C.

Consider `Oc1ccc(-c2nsnc2Cl)cc1`, for which the melting point is 135 to 136 °C. With `NS(=O)(=O)c1cccc(-c2cc(-c3nc(-c4ccc(C(F)(F)F)cc4)cc(C(F)F)n3)ccn2)c1` the figure was 234 °C; with `COc1cc(C)nc(NC(=O)NS(=O)(=O)c2cccc(NC(=O)OC(C)C)c2)n1`, 173 to 180 °C. In the case of `O=C(NCCCO)c1cccc(-c2cccn3c(=O)n(Cc4cccc(C(F)(F)F)c4)nc23)c1`, the melting point lay within 148 to 149 °C. The figure for `CCc1noc(-c2ncn(-c3cccc(Oc4ccc([N+](=O)[O-])cc4)c3)c2COC)n1` is 126 to 127 °C; for `O=C(CCC1CCN(Cc2ccccc2)CC1)c1ccc(Nc2ncnc3c2CCC3O)cc1` (stereo not drawn) it is 189 to 190 °C; for `Clc1ccc(C=Cc2nc(CNc3ccc(CCCCn4ccnn4)cc3)co2)cc1Cl` it is 76.8 to 78.8 °C. `CCC(=O)Oc1cc(OC)cc(OC)c1C(=O)C=Cc1ccccc1` registered a melting point of 116 to 117 °C. `CC(C)(C)OC(=O)N1CC=C(c2ccnc(C(=O)N(O)Cc3ccccc3)c2)CC1`: the melting point worked out at 125 °C. `CS(=O)(=O)Nc1cc2c(cc1Oc1ccc(F)cc1F)C(=O)CCO2` had a melting point of 164 to 165 °C. Regarding `CCCC/C(=C\C=C\C(=O)Oc1ccc([N+](=O)[O-])cc1)c1ccc(OC)cc1`, the melting point lay within 78 to 80 °C. `CCOC(COC1CC2C3CCC4=CC(=O)C=CC4(C)C3(F)C(O)CC2(C)C1(O)C(=O)CCl)OCC` (stereo not drawn) came in with a melting point of 200 to 202 °C.

Molecule `OC1CSC(Oc2cncc(-c3ccc(Cl)nc3)c2)C(O)C1O` (stereo not drawn) yielded a melting point of 211 °C. With `CC1(C)C=C(CS(=O)(=O)c2ccccc2)C(C)(C)CC1`, the melting point is 48 to 50 °C. The figure for `CCOc1cc(C(CC(=O)O)N2Cc3cccc(NC(C)=O)c3C2=O)ccc1OC(F)F` (stereo not drawn) is 105 to 107 °C; for `CCN1CC(=O)N(c2c(C)cccc2Cl)C1=S` it is 124 to 126 °C; for `Cc1cc(SC2=C(O)CC(C3CCCC3)(C3CCCC3)OC2=O)c(C(C)(C)C)cc1CO` it is 158 to 160 °C. With `O=C(O)c1cn(C2CC2)c2nc(N3CCC(c4ccccn4)C3)c(F)cc2c1=O` (stereo not drawn), the melting point fell in the range of 203 to 204 °C. With `C=Cc1ccc2nc(Cl)c(S(N)(=O)=O)n2n1` the figure was 229 to 233 °C; with `O=C(O)/C=C/c1ccc(-c2nc3c(=O)n(CC4CC4)c(=O)n(CC4CC4)c3[nH]2)cc1`, > 250 °C. With `O=C(Nc1ccccc1)OC(c1cccnc1)C(Cl)(Cl)Cl` (stereo not drawn) the figure was 146 °C. In turn, `N#CCCc1ccnc(-c2nc(=O)c3ccccc3s2)c1` showed a melting point of 178 to 179 °C. As for `Cc1cn(C2CC(O)C(CO)S2)c(=O)[nH]c1=O` (stereo not drawn), the melting point is 213 to 215 °C. The molecule `CC(C)CCCC(C)NC1=NS(=O)(=O)c2sc(Cl)cc2N1` (stereo not drawn) displayed a melting point of 197 to 199 °C. `CCSC(=S)SC1NC(=O)C1C(C)OC(C)=O` (mixture of isomers) showed a melting point of 101 to 105 °C. `CCc1cc(Oc2ccc([N+](=O)[O-])cc2C(F)(F)F)nn1C(=O)NC`: the melting point was 97 to 100 °C. For the molecule `CN(C)c1c(F)c(F)c(F)c2c1c(=O)c(C(=O)O)cn2C1COC1`, the melting point fell in the range of 173 to 175 °C. `COc1ccccc1COc1cc2c(cc1OC)C(=O)N(Cc1ccccc1OC)CC2`: the melting point is 133 to 134 °C. As for `CC(C)(C)OC(=O)N1CCC(NC(=O)Nc2ccc(OC(F)(F)F)cc2)CC1`, the melting point was 160 to 162 °C. For the molecule `COc1ccc(Cn2c(=O)c(C(=O)NC3CCCCC3)c(O)c3cccnc32)cc1`, the melting point amounted to 149 °C. On to `Cc1cc(CO)cc(Cl)n1`, for which the melting point was in the range of 112 to 113 °C. With `CC1(C)OC(=O)C(=C2NCCN2)C(=O)O1` the figure was 181 to 182 °C; with `Cc1nc[nH]c1CSCCCNC(=N)N`, 156 to 158 °C; with `CC(C)(C)NCC(O)c1cc(Br)c(N)c(C(N)=O)c1` (stereo not drawn), 135 to 145 °C.

`Cc1cc(C(=O)N(C)C)ccc1-c1ccc(C(=O)Nc2ccc(Br)c(N3CCN(C)CC3)c2)cc1` had a melting point of 227 to 228 °C. `CO[C@]1(c2cc(F)cc(Sc3ccc(/C(C)=N/O)cc3)c2)CCO[C@@H](C)C1` displayed a melting point of 105 °C. As for `CCCC(=O)c1cnc2c(C(=O)O)cccc2c1Nc1ccccc1C`, the melting point fell in the range of 179 to 180 °C.

`CCOC(=O)CC(O)(CC)c1cc2n(c(=O)c1C)Cc1cc3ccccc3nc1-2` (stereo not drawn) gave a melting point of 185 to 188 °C. Consider `CN(CCOc1ccc(N)cc1)CCc1ccc(N)cc1`, for which the melting point is 73 to 74 °C. The molecule `O=C(CCc1nc2ccccc2s1)Nc1cc(N2CC(c3ccccc3)OC2=O)ccn1` (stereo not drawn) came in with a melting point of 229 to 230 °C. Regarding `CCOc1ccc(OC)c([N+](=O)[O-])c1`, the melting point lay within 33 to 36 °C. `Cc1ccc(C(Cn2cncn2)c2ccccc2)cc1` (stereo not drawn) returned a melting point of 98 to 100 °C. Turning to `COc1cc2nc(N3CCN(C(=O)CC(O)c4ccccc4)CC3)nc(N)c2cc1OC` (stereo not drawn), the melting point stood at 222 °C. The figure for `N#Cc1cn(-c2c(Cl)cc(C(F)(F)F)cc2Cl)nc1[N+](=O)[O-]` is 163 to 165 °C.

As usually defined, the melting point is the temperature, or range, at which the solid turns liquid.
